Data as given in US11970479B2, “3-(1H-pyrazol-4-yl)pyridine allosteric modulators of the M4 muscarinic acetylcholine receptor” (Merck Sharp & Dohme LLC, priority 2018, dated 2024).

Biological target: T1, human M4 muscarinic acetylcholine receptor (Homo sapiens, UniProt P08173)
T1 construct: expressed in transfected cells
T1 sequence (P08173 1-479): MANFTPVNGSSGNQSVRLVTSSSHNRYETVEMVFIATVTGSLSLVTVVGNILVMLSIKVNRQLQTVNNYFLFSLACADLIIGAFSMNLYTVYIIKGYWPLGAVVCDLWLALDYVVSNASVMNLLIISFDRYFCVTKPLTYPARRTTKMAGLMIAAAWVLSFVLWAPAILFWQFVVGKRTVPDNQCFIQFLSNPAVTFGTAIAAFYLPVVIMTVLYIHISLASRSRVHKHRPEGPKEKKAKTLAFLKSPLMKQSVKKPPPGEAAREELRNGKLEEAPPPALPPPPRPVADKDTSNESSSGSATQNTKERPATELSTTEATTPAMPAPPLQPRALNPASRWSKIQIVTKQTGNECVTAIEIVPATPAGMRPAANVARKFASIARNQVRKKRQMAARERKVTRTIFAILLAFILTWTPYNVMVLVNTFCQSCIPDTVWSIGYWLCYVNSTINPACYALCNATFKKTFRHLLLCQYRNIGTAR
Assay: human FLIPR-based M4 PAM assay (CHO-K1 cells with human M4 receptor and Gαqi5, calcium dye fluorescence, EC20 acetylcholine)
Type: cell-based
Conditions: inflection point (IP) of the dose response curve, human M4 receptor/Gαqi5, acetylcholine at 20% of maximum response, read-out: M4PAM Hu IP
Procedure, shortened: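 CHO-K1 cells stably expressing human M4 and chimeric Gαqi5 were dye-loaded ~1 h at 37° C. Test compound was added with fluorescence recorded 4 min, then acetylcholine at EC20 (sometimes a further EC70 addition) with reading 3.5 min. Value is the inflection point of a 4-parameter logistic fit.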

EC50 | SMILES
123 nM | COCCOc1ccc(-c2cnn(CCC(C)C)c2)c(-c2ccc3cccnc3c2)n1 [Example 75, 7-{6-(2-methoxyethoxy)-3-[1-(3-methylbutyl)-1H-pyrazol-4-yl]pyridin-2-yl}quinoline]
63 nM | CSc1cnc(-c2ccc3cccnc3c2)c(-c2cnn(CCC(C)C)c2)c1 [Example 76, 7-{3-[1-(3-methylbutyl)-1H-pyrazol-4-yl]-5-(methylsulfanyl)pyridin-2-yl}quinoline]
271 nM | COc1cc2ccc(-c3nc(C)ccc3-c3cnn(CCCC(F)(F)F)c3)cc2nn1 [Example 77, 3-methoxy-7-{6-methyl-3-[1-(4,4,4-trifluorobutyl)-1H-pyrazol-4-yl]pyridin-2-yl}cinnoline]
190 nM | COc1cc2ccc(-c3nc(C)ccc3-c3cnn(CC4CC(F)(F)C4)c3)cc2nn1 [Example 78, 7-(3-{1-[(3,3-difluorocyclobutyl)methyl]-1H-pyrazol-4-yl}-6-methylpyridin-2-yl)-3-methoxycinnoline]
166 nM | COc1cc2ccc(-c3nc(C)ccc3-c3cnn(CCC4CC(F)(F)C4)c3)cc2nn1 [Example 79, 7-(3-{1-[2-(3,3-difluorocyclobutyl)ethyl]-1H-pyrazol-4-yl}-6-methylpyridin-2-yl)-3-methoxycinnoline]
154 nM | COc1cc2ccc(-c3nc(C)ccc3-c3cnn(CCCC(F)=C(F)F)c3)cc2nn1 [Example 80, 3-methoxy-7-{6-methyl-3-[1-(4,5,5-trifluoropent-4-en-1-yl)-1H-pyrazol-4-yl]pyridin-2-yl}cinnoline]
228 nM | COc1cc2ccc(-c3nc(C)ccc3-c3cnn(CCC4CCOC4)c3)cc2nn1 (centres unmarked) [Example 81, 3-methoxy-7-(6-methyl-3-{1-[2-(tetrahydrofuran-3-yl)ethyl]-1H-pyrazol-4-yl}pyridin-2-yl)cinnoline]
180 nM | COc1cc2ccc(-c3nc(C)ccc3-c3cnn(CC4CCOC4)c3)cc2nn1 (centres unmarked) [Example 82, 3-methoxy-7-{6-methyl-3-[1-(tetrahydrofuran-3-ylmethyl)-1H-pyrazol-4-yl]pyridin-2-yl}cinnoline]
99 nM | COc1cc2ccc(-c3nc(C)ccc3-c3cnn(CC4CC5(CCC5)C4)c3)cc2nn1 [Example 83, 3-methoxy-7-{6-methyl-3-[1-(spiro[3.3]hept-2-ylmethyl)-1H-pyrazol-4-yl]pyridin-2-yl}cinnoline]
198 nM | COc1cc2ccc(-c3nc(C)ccc3-c3cnn(CC(C)(C)C#N)c3)cc2nn1 [Example 84, 3-{4-[2-(3-methoxycinnolin-7-yl)-6-methylpyridin-3-yl]-1H-pyrazol-1-yl}-2,2-dimethylpropanenitrile]
199 nM | COc1cc2ccc(-c3nc(C)ccc3-c3cnn(CCC(C)(C)C#N)c3)cc2nn1 [Example 85, 4-{4-[2-(3-methoxycinnolin-7-yl)-6-methylpyridin-3-yl]-1H-pyrazol-1-yl}-2,2-dimethylbutanenitrile]
69 nM | COc1cc2ccc(-c3nc(C)ccc3-c3cnn(CC4(F)CCCCC4)c3)cc2nn1 [Example 86, 7-(3-{1-[(1-fluorocyclohexyl)methyl]-1H-pyrazol-4-yl}-6-methylpyridin-2-yl)-3-methoxycinnoline]
63 nM | COc1cc2ccc(-c3nc(C)ccc3-c3cnn(CC4(C)CCOCC4)c3)cc2nn1 [Example 87, 3-methoxy-7-(6-methyl-3-{1-[(4-methyltetrahydro-2H-pyran-4-yl)methyl]-1H-pyrazol-4-yl}pyridin-2-yl)cinnoline]
44 nM | CC(C)(Cn1cc(-c2ccc(C#N)nc2-c2ccc3cccnc3c2)cn1)C(F)(F)F [Example 88, 6-quinolin-7-yl-5-[1-(3,3,3-trifluoro-2,2-dimethylpropyl)-1H-pyrazol-4-yl]pyridine-2-carbonitrile]
52 nM | CC(C)(C)CCn1cc(-c2ccc(C#N)nc2-c2ccc3cccnc3c2)cn1 [Example 89, 5-[1-(3,3-dimethylbutyl)-1H-pyrazol-4-yl]-6-quinolin-7-ylpyridine-2-carbonitrile]
27 nM | CC(C)(Cn1cc(-c2ccc(C#N)nc2-c2ccc3cccnc3c2)cn1)C(F)F [Example 90, 5-[1-(3,3-difluoro-2,2-dimethylpropyl)-1H-pyrazol-4-yl]-6-quinolin-7-ylpyridine-2-carbonitrile]
190 nM | CC(C)(CCn1cc(-c2ccc(C#N)nc2-c2ccc3cccnc3c2)cn1)C(F)(F)F [Example 91, 6-quinolin-7-yl-5-[1-(4,4,4-trifluoro-3,3-dimethylbutyl)-1H-pyrazol-4-yl]pyridine-2-carbonitrile]
131 nM | N#Cc1ccc(-c2cnn(CC(F)(F)C(F)F)c2)c(-c2ccc3cccnc3c2)n1 [Example 92, 6-quinolin-7-yl-5-[1-(2,2,3,3-tetrahydropropyl)-1H-pyrazol-4-yl]pyridine-2-carbonitrile]

EC50 | SMILES
24 nM | Cc1ccc(-c2cnn(CC3(C)CCC(F)(F)CC3)c2)c(-c2ccc3cccnc3c2)n1 [Example 93, 7-(3-{1-[(4,4-difluoro-1-methylcyclohexyl)methyl]-1H-pyrazol-4-yl}-6-methylpyridin-2-yl)quinoline]
52 nM | CC1(Cn2cc(-c3cccnc3-c3ccc4cccnc4c3)cn2)CCCCC1 [Example 94, 7-(3-{1-[(1-methylcyclohexyl)methyl]-1H-pyrazol-4-yl}pyridin-2-yl)quinoline]
158 nM | c1cnc(-c2ccc3cccnc3c2)c(-c2cnn(CCC3CCC3)c2)c1 [Example 95, 7-{3-[1-(2-cyclobutylethyl)-1H-pyrazol-4-yl]pyridin-2-yl}quinoline]
239 nM | c1cnc(-c2ccc3cccnc3c2)c(-c2cnn(CCC3CC3)c2)c1 [Example 96, 7-{3-[1-(2-cyclopropylethyl)-1H-pyrazol-4-yl]pyridin-2-yl}quinoline]
87 nM | CC1(Cn2cc(-c3ccc(C#N)nc3-c3ccc4cccnc4c3)cn2)CC1 [Example 97, 5-{1-[(1-methylcyclopropyl)methyl]-1H-pyrazol-4-yl}-6-quinolin-7-ylpyridine-2-carbonitrile]
81 nM | COc1cc2ccc(-c3nc(C)ccc3-c3cnn(CC4CC4(C)C)c3)cc2nn1 (centres unmarked) [Example 100, 7-(3-{1-[(2,2-dimethylcyclopropyl)methyl]-1H-pyrazol-4-yl}-6-methylpyridin-2-yl)-3-methoxycinnoline]
100 nM | Cc1ccc(-c2cnn(CC3CC3(C)C)c2)c(-c2ccc3cccnc3c2)n1 (centres unmarked) [Example 101, 7-(3-{1-[(2,2-dimethylcyclopropyl)methyl]-1H-pyrazol-4-yl}-6-methylpyridin-2-yl)quinoline]
91 nM | COc1cc2ccc(-c3nc(C#N)ccc3-c3cnn(CC4CC4(C)C)c3)cc2nn1 (centres unmarked) [Example 102, 5-{1-[(2,2-dimethylcyclopropyl)methyl]-1H-pyrazol-4-yl}-6-(3-methoxycinnolin-7-yl)pyridine-2-carbonitrile]
45 nM | CC1(C)CC1Cn1cc(-c2ccc(C#N)nc2-c2ccc3cccnc3c2)cn1 (centres unmarked) [Example 103, 5-{1-[(2,2-dimethylcyclopropyl)methyl]-1H-pyrazol-4-yl}-6-quinolin-7-ylpyridine-2-carbonitrile]
154 nM | COc1cc2ccc(-c3nc(C#N)ccc3-c3cnn(CC4(CC#N)CC4)c3)cc2nn1 [Example 104, 5-(1-{[1-(cyanomethyl)cyclopropyl]methyl}-1H-pyrazol-4-yl)-6-(3-methoxycinnolin-7-yl)pyridine-2-carbonitrile]
120 nM | N#CCC1(Cn2cc(-c3ccc(C#N)nc3-c3ccc4cccnc4c3)cn2)CC1 [Example 105, 5-(1-{[1-(cyanomethyl)cyclopropyl]methyl}-1H-pyrazol-4-yl)-6-quinolin-7-ylpyridine-2-carbonitrile]
93 nM | c1cnc(-c2ccc3cccnc3c2)c(-c2cnn(CC3CCCCC3)c2)c1 [Example 106, 7-{3-[1-(cyclohexylmethyl)-1H-pyrazol-4-yl]pyridin-2-yl}quinoline]
16 nM | COc1cc2ccc(-c3nc(C)ccc3-c3cnn(CC4CCCCC4)c3)cc2nn1 [Example 107, 7-{3-[1-(cyclohexylmethyl)-1H-pyrazol-4-yl]-6-methylpyridin-2-yl}-3-methoxycinnoline]
142 nM | COc1cc2ccc(-c3nc(C)ccc3-c3cnn(C4CCC(F)(F)CC4)c3)cc2nn1 [Example 108, 7-{3-[1-(4,4-difluorocyclohexyl)-1H-pyrazol-4-yl]-6-methylpyridin-2-yl}-3-methoxycinnoline]
48 nM | CC(C)(C)Cn1cc(-c2ccc(C(F)F)nc2-c2ccc3cccnc3c2)cn1 [Example 109, 7-{6-(difluoromethyl)-3-[1-(2,2-dimethylpropyl)-1H-pyrazol-4-yl]pyridin-2-yl}quinoline]
129 nM | CC(C)Cn1cc(-c2ccc(C#N)nc2-c2ccc3cccnc3c2)cn1 [Example 110, 5-[1-(2-methylpropyl)-1H-pyrazol-4-yl]-6-quinolin-7-ylpyridine-2-carbonitrile]
110 nM | N#Cc1ccc(-c2cnn(CC3(F)CC3)c2)c(-c2ccc3cccnc3c2)n1 [Example 111, 5-{1-[(1-fluorocyclopropyl)methyl]-1H-pyrazol-4-yl}-6-quinolin-7-ylpyridine-2-carbonitrile]
